The values below come from patent US20230167118A1, “DEGRADATION OF BRUTON'S TYROSINE KINASE (BTK) BY CONJUGATION OF BTK INIDBITORS WITH E3 LIGASE LIGAND AND METHODS OF USE” (BEIGENE, LTD., priority 2020, published 2023).

Bounds are passed on as bounds.

One assay addresses T1, BTK (Homo sapiens, UniProt Q06187).
T1 construct: High control=Cell group with added DMSO and without compound, indicating microplate readings without BTK degradation; endogenous in cells; host or cells: TMD-8 cells
In words: Cell Degradation: BTK degradation in TMD-8 cells, HTRF assay. The class given is cell-based. To be noted: 6 h treatment, IC50 (DC50) of BTK degradation. The method, boiled down: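 BTK levels read by HTRF (665 vs 620 nm) in lysates of TMD-8 cells after 6 h compound exposure (eight doses, 6-fold steps, 0.2% DMSO). Percent degradation relative to controls; four-parameter curve fitting gave DC50, with Dmax the top degradation.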
A general note: In TR-FRET formats the signal depends on donor and acceptor labels being close together.

The test system of another assay is HEK-293 cells. In words: HEK-293 Cytotoxicity Assay (CellTiter-Glo). In kind it is cell-based. To be noted: Homo sapiens, HEK293, 72 h incubation, CellTiter-Glo luminescence. The method, boiled down: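 Four-parameter fit of % inhibition gives IC50, from CellTiter-Glo luminescent viability read-out. Cells exposed for 72 h to an 8-point, 4-fold series at 0.2% DMSO.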

T1 sequence (Q06187 whole entry): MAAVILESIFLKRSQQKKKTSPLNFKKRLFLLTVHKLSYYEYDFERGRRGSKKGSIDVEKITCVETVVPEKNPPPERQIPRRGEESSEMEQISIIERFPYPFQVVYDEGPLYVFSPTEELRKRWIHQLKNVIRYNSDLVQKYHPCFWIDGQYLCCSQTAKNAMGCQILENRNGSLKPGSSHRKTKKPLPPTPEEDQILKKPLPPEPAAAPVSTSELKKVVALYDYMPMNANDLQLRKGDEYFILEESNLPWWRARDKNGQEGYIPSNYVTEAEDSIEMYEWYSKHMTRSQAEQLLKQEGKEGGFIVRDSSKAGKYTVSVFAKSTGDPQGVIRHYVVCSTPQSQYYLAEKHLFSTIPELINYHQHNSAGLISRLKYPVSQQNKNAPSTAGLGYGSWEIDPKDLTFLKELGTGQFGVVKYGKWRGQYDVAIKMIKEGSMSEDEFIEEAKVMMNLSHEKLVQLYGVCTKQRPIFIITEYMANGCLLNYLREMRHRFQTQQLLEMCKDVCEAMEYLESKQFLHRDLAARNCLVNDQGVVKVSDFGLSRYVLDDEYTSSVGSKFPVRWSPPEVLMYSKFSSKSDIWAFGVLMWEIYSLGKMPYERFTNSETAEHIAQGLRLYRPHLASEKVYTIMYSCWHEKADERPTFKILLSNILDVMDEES

As a reminder, the DC50 is the concentration giving 50% degradation. By IC50 is commonly meant the concentration that inhibits the measured activity by half. Read a low IC50 as greater potency in that assay. Turning to `CC(C)(C)c1noc(C(=O)NCc2ccc(-c3ncnc4[nH]c(-c5cnn(C6CCN(CC7CCN(c8ccc(N9CCC(=O)NC9=O)cc8)CC7)CC6)c5)cc34)cc2F)n1` [Example 16, 3-(tert-butyl)-N-(4-(6-(1-(1-((1-(4-(2,4-dioxotetrahydropyrimidin-1(2H)-yl)phenyl)piperidin-4-yl)methyl)piperidin-4-yl)-1H-pyrazol-4-yl)-7H-pyrrolo[2,3-d]pyrimidin-4-yl)-2-fluorobenzyl)-1,2,4-oxadiazole-5-carboxamide], it took 0.55 nM to reach half-maximal degradation at BTK (DC50). Also, the half-inhibitory concentration (IC50) in the assay on HEK-293 cells is > 10000 nM.
The like results for `Cc1cc(N2CCC(CN3CCN(c4ccc(-c5cc6c(-c7ccc([C@@H](C)NC(=O)c8noc(C(C)(C)C)n8)c(CO)c7)ncnc6[nH]5)cn4)CC3)CC2)ccc1N1CCC(=O)NC1=O` [Example 145, (R)-5-(tert-butyl)-N-(1-(4-(6-(6-(4-((1-(4-(2,4-dioxotetrahydropyrimidin-1(2H)-yl)-3-methylphenyl)piperidin-4-yl)methyl)piperazin-1-yl)pyridin-3-yl)-7H-pyrrolo[2,3-d]pyrimidin-4-yl)-2-(hydroxymethyl)phenyl)ethyl)-1,2,4-oxadiazole-3-carboxamide] were, in that order, 0.27 nM and > 10000 nM.
The like results for `Cc1c([C@@H](C)NC(=O)c2noc(C(C)(C)C)n2)ccc(-c2ncnc3[nH]c(-c4ccc(N5CCN(CC6CCN(c7ccc(N8CCC(=O)NC8=O)cc7)CC6)CC5)cc4)cc23)c1F` [Example 115, (R)-5-(tert-butyl)-N-(1-(4-(6-(4-(4-((1-(4-(2,4-dioxotetrahydropyrimidin-1(2H)-yl)phenyl)piperidin-4-yl)methyl)piperazin-1-yl)phenyl)-7H-pyrrolo[2,3-d]pyrimidin-4-yl)-3-fluoro-2-methylphenyl)ethyl)-1,2,4-oxadiazole-3-carboxamide] were, in that order, 1.83 nM and > 10000 nM.
The like results for `Cc1cc(-c2ncnc3[nH]c(-c4ccc(N5CCN(CCC6CCN(c7ccc(N8CCC(=O)NC8=O)c(Cl)c7)CC6)CC5)nc4)cc23)ccc1[C@@H](C)NC(=O)c1nc(C(C)(C)C)no1` [Example 26, (R)-3-(tert-butyl)-N-(1-(4-(6-(6-(4-(2-(1-(3-chloro-4-(2,4-dioxotetrahydropyrimidin-1(2H)-yl)phenyl)piperidin-4-yl)ethyl)piperazin-1-yl)pyridin-3-yl)-7H-pyrrolo[2,3-d]pyrimidin-4-yl)-2-methylphenyl)ethyl)-1,2,4-oxadiazole-5-carboxamide] were, in that order, 4.7 nM and > 10000 nM.
In the case of `Cc1cc(N2CCN(CC3CCN(c4ccc(N5CCC(=O)NC5=O)c(C)c4)CC3)CC2)ccc1-c1nc2c(-c3ccc([C@@H](C)NC(=O)c4nc(C(C)(C)C)no4)c(C)c3)ncnc2[nH]1` [Example 114, (R)-3-(tert-butyl)-N-(1-(4-(8-(4-(4-((1-(4-(2,4-dioxotetrahydropyrimidin-1(2H)-yl)-3-methylphenyl)piperidin-4-yl)methyl)piperazin-1-yl)-2-methylphenyl)-9H-purin-6-yl)-2-methylphenyl)ethyl)-1,2,4-oxadiazole-5-carboxamide], the DC50 on BTK was found to be 1.68 nM. The concentration for half-maximal inhibition (IC50) in the assay with HEK-293 cells was > 10000 nM.
For `Cc1cc(-c2ncnc3[nH]c(-c4ccc(N5CCN(CC6CCN(c7ccc(N8CCC(=O)NC8=O)cc7)CC6)CC5)cc4)cc23)ccc1CNC(=O)c1csc(C(C)(C)C)n1` [Example 46, 2-(tert-butyl)-N-(4-(6-(4-(4-((1-(4-(2,4-dioxotetrahydropyrimidin-1(2H)-yl)phenyl)piperidin-4-yl)methyl)piperazin-1-yl)phenyl)-7H-pyrrolo[2,3-d]pyrimidin-4-yl)-2-methylbenzyl)thiazole-4-carboxamide] the same measures were 5.3 nM and > 10000 nM.
For `Cc1cc(-c2ncnc3[nH]c(-c4ccc(N5CCN(CC6CCN(c7ccc(N8CCC(=O)NC8=O)c(C)c7)CC6)CC5)nc4)cc23)c(F)cc1[C@@H](C)NC(=O)c1noc(C(C)(C)C)n1` [Example 132, (R)-5-(tert-butyl)-N-(1-(4-(6-(6-(4-((1-(4-(2,4-dioxotetrahydropyrimidin-1(2H)-yl)-3-methylphenyl)piperidin-4-yl)methyl)piperazin-1-yl)pyridin-3-yl)-7H-pyrrolo[2,3-d]pyrimidin-4-yl)-5-fluoro-2-methylphenyl)ethyl)-1,2,4-oxadiazole-3-carboxamide] the same measures were 0.79 nM and > 10000 nM.
For `Cc1cc(-c2ncnc3[nH]c(-c4ccc(C5CCN(CCC6CCN(c7ccc(N8CCC(=O)NC8=O)c(C)c7)CC6)CC5)cc4)cc23)ccc1CNC(=O)c1nc(C(C)(C)C)no1` [Example 22, 3-(tert-butyl)-N-(4-(6-(4-(1-(2-(1-(4-(2,4-dioxotetrahydropyrimidin-1(2H)-yl)-3-methylphenyl)piperidin-4-yl)ethyl)piperidin-4-yl)phenyl)-7H-pyrrolo[2,3-d]pyrimidin-4-yl)-2-methylbenzyl)-1,2,4-oxadiazole-5-carboxamide] the same measures were 2.3 nM and 1560 nM.
Molecule `Cc1cc(-c2ncnc3[nH]c(-c4ccc(N5CCN(CC6CCN(c7ccc(N8CCC(=O)NC8=O)cc7)CC6)CC5)nc4)cc23)ccc1[C@@H](C)NC(=O)c1nc(C(C)(C)C)no1` [Example 14, (R)-3-(tert-butyl)-N-(1-(4-(6-(6-(4-((1-(4-(2,4-dioxotetrahydropyrimidin-1(2H)-yl)phenyl)piperidin-4-yl)methyl)piperazin-1-yl)pyridin-3-yl)-7H-pyrrolo[2,3-d]pyrimidin-4-yl)-2-methylphenyl)ethyl)-1,2,4-oxadiazole-5-carboxamide] yielded a half-maximal degradation concentration (DC50) on BTK of 0.72 nM. Further, the IC50 with HEK-293 cells is > 10000 nM.
`Cc1cc(-c2ncnc3[nH]c(-c4nn(C)c(C5=CCN(CC6CCN(c7ccc(N8CCC(=O)NC8=O)cc7)CC6)CC5)c4C)cc23)ccc1[C@@H](C)NC(=O)c1nc(C(C)(C)C)no1` [Example 174, (R)-3-(tert-butyl)-N-(1-(4-(6-(5-(1-((1-(4-(2,4-dioxotetrahydropyrimidin-1(2H)-yl)phenyl)piperidin-4-yl)methyl)-1,2,3,6-tetrahydropyridin-4-yl)-1,4-dimethyl-1H-pyrazol-3-yl)-7H-pyrrolo[2,3-d]pyrimidin-4-yl)-2-methylphenyl)ethyl)-1,2,4-oxadiazole-5-carboxamide]: on BTK, the DC50 amounted to 1.51 nM. In addition, the IC50 in the assay with HEK-293 cells was > 10000 nM.
On BTK, `Cc1cc(-c2ncnc3[nH]c(-c4ccc(C5CC6CCC(C5)N6CC5CCN(c6ccc(N7CCC(=O)NC7=O)cc6)CC5)cc4)cc23)ccc1[C@@H](C)NC(=O)c1nc(C(C)(C)C)no1` (stereo partly drawn) [Example 183, 3-(tert-butyl)-N-((1R)-1-(4-(6-(4-(8-((1-(4-(2,4-dioxotetrahydropyrimidin-1(2H)-yl)phenyl)piperidin-4-yl)methyl)-8-azabicyclo[3.2.1]octan-3-yl)phenyl)-7H-pyrrolo[2,3-d]pyrimidin-4-yl)-2-methylphenyl)ethyl)-1,2,4-oxadiazole-5-carboxamide] gave a DC50 of 1.4 nM. In addition, the IC50 in the assay on HEK-293 cells came to 1040 nM.
